In patent publication US20230011869A1 (Hoffmann-La Roche Inc., priority 2018, published 2023) one finds IC90 data, which are given here for 24 compounds.

Where a name gives a salt, the structure may show the parent alone. Read-outs that look alike come from different tables or passages of the source.

This assay concerns Acinetobacter baumannii ATCC17978. Kind of assay: Antimicrobial susceptibility testing: 90% growth inhibitory concentration (IC90) determination, Iso-Sensitest broth. It is filed as cell-based. A digest of the protocol: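 A. baumannii ATCC17978 grown in Iso-Sensitest broth across 10 compound concentrations at 35±2 °C.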
The mark [1] stands for this setting: 90% growth inhibitory concentration, Acinetobacter baumannii ATCC17978, Iso-Sensitest broth, OD 600 nm over 16 h, read-out: ATCC17978 IC90.

`COc1ccc(-c2cnc3c(Nc4ccc(C(=O)N5CCN(C(=O)[C@@H]6CCNC[C@H]6O)CC5)c(C)c4)nccn23)c(F)c1F` [Example 193, [4-[[3-(2,3-difluoro-4-methoxy-phenyl)imidazo[1,2-a]pyrazin-8-yl]amino]-2-methyl-phenyl]-[4-[(3S,4R)-3-hydroxypiperidine-4-carbonyl]piperazin-1-yl]methanone hydrochloride]: the IC90 under setting [1] was 290 nM. Take `CCc1cc(Nc2nccn3c(-c4ccc(OCC#N)c(F)c4F)cnc23)ccc1C(=O)N1CCN(C(=O)C2CCNCC2)CC1` [Example 194, 2-[4-[8-[3-ethyl-4-[4-(piperidine-4-carbonyl)piperazine-1-carbonyl]anilino]imidazo [1,2-a]pyrazin-3-yl]-2,3-difluoro-phenoxy]acetonitrile formate]: the IC90 under setting [1] came out at 290 nM. On the same count and under the same terms, the result for `Cc1cc(Nc2nccn3c(-c4ccc(OCC#N)c(F)c4F)cnc23)ccc1C(=O)N1CCN(C(=O)[C@H]2CCNC2)CC1` [Example 201, 2-[2,3-difluoro-4-[8-[3-methyl-4-[4-[(3S)-pyrrolidine-3-carbonyl]piperazine-1-carbonyl]anilino]imidazo[1,2-a]pyrazin-3-yl]phenoxy] acetonitrile; formic acid] reads 100 nM; that for `COc1ccc(-c2cnc3c(Nc4ccc(C(=O)N5CCN(C(=O)[C@@H]6CCNC6)CC5)c(C)c4)nccn23)c(F)c1F` [Example 202, (R)-(4-(4-((3-(2,3-difluoro-4-methoxyphenyl)imidazo[1,2-a]pyrazin-8-yl)amino)-2-methylbenzoyl)piperazin-1-yl) (pyrrolidin-3-yl)methanone hydrochloride], 93 nM. Take `COc1ccc(-c2cnc3c(Nc4ccc(C(=O)N5CCN(C(=O)C6CNC6)CC5)c(C)c4)nccn23)c(F)c1F` [Example 203, [4-(azetidine-3-carbonyl)piperazin-1-yl]-[4-[[3-(2,3-difluoro-4-methoxy-phenyl)imidazo[1,2-a]pyrazin-8-yl]amino]-2-methyl-phenyl]methanone; hydrochloride]: the IC90 under setting [1] is 190 nM. As for `COc1ccc(-c2cnc3c(Nc4ccc(C(=O)N5CCN(C(=O)C6C7CCC6CNC7)CC5)c(C)c4)nccn23)c(F)c1F` (stereo not drawn) [Example 205, [4-(3-azabicyclo[3.2.1]octane-8-carbonyl)piperazin-1-yl]-[4-[[3-(2,3-difluoro-4-methoxy-phenyl)imidazo[1,2-a]pyrazin-8-yl]amino]-2-methyl-phenyl]methanone hydrochloride], the IC90 under setting [1] turned out to be 110 nM. Regarding `Cc1cc(Nc2nccn3c(-c4ccc(OCC#N)c(F)c4Cl)cnc23)ccc1C(=O)N1CCC(C(=O)N2CCNC[C@@H]2CO)CC1` [Example 207, 2-[3-chloro-2-fluoro-4-[8-[4-[4-[(2R)-2-(hydroxymethyl)piperazine-1-carbonyl]piperidine-1-carbonyl]-3-methyl-anilino]imidazo[1,2-a]pyrazin-3-yl]phenoxy] acetonitrile], under setting [1], the IC90 stood at 170 nM. As for `Cc1cc(Nc2nccn3c(-c4ccc(OCC#N)c(F)c4Cl)cnc23)ccc1C(=O)N1CCC(C(=O)N2CCNC[C@H]2CO)CC1` [Example 208, 2-[3-chloro-2-fluoro-4-[8-[4-[4-[(2S)-2-(hydroxymethyl)piperazine-1-carbonyl]piperidine-1-carbonyl]-3-methyl-anilino]imidazo[1,2-a]pyrazin-3-yl]phenoxy] acetonitrile formate], the IC90 under setting [1] was 160 nM. On to `COc1ccc(-c2cnc3c(Nc4ccc(C(=O)N5CCN(C(=O)[C@H]6CCNC6)CC5)c(C)c4)nccn23)c(Cl)c1F` [Example 210, [4-[[3-(2-chloro-3-fluoro-4-methoxy-phenyl)imidazo[1,2-a]pyrazin-8-yl]amino]-2-methyl-phenyl]-[4-[(3S)-pyrrolidine-3-carbonyl]piperazin-1-yl]methanone formate], for which, under setting [1], the IC90 turned out to be 94 nM. `COc1ccc(-c2cnc3c(Nc4ccc(C(=O)N5CCN(C(=O)C6(O)CCNCC6)CC5)c(C)c4)nccn23)c(Cl)c1F` [Example 215, [4-[[3-(2-chloro-3-fluoro-4-methoxy-phenyl)imidazo[1,2-a]pyrazin-8-yl]amino]-2-methyl-phenyl]-[4-(4-hydroxypiperidine-4-carbonyl)piperazin-1-yl]methanone formate]: under setting [1], the IC90 stood at 150 nM. On to `COc1ccc(-c2cnc3c(Nc4ccc(C(=O)N5CCN(C(=O)[C@@H]6CCNC[C@H]6O)CC5)c(C)c4)nccn23)c(Cl)c1F` [Example 216, [4-[[3-(2-chloro-3-fluoro-4-methoxy-phenyl)imidazo[1,2-a]pyrazin-8-yl]amino]-2-methyl-phenyl]-[4-[(3S,4R)-3-hydroxypiperidine-4-carbonyl]piperazin-1-yl]methanone formate], for which the IC90 under setting [1] was 190 nM. Turning to `COc1ccc(-c2cnc3c(Nc4ccc(C(=O)N5CCN(C(=O)[C@H]6CCNC[C@H]6O)CC5)c(C)c4)nccn23)c(Cl)c1F` [Example 217, [4-[[3-(2-chloro-3-fluoro-4-methoxy-phenyl)imidazo[1,2-a]pyrazin-8-yl]amino]-2-methyl-phenyl]-[4-[(3S,4S)-3-hydroxypiperidine-4-carbonyl]piperazin-1-yl]methanone], the IC90 under setting [1] was 280 nM. On the same count and under the same terms, the result for `COc1ccc(-c2cnc3c(Nc4ccc(C(=O)N5CCN(C(=O)[C@H]6CCNC[C@@H]6O)CC5)c(C)c4)nccn23)c(Cl)c1F` [Example 219, [4-[[3-(2-chloro-3-fluoro-4-methoxy-phenyl)imidazo[1,2-a]pyrazin-8-yl]amino]-2-methyl-phenyl]-[4-[(3R,4S)-3-hydroxypiperidine-4-carbonyl]piperazin-1-yl]methanone formate] reads 220 nM; that for `CNCC(=O)N1CCN(C(=O)c2ccc(Nc3nccn4c(-c5ccc(OC)c(F)c5)cnc34)cc2C)CC1` [Example 224, 1-(4-(4-((3-(3-fluoro-4-methoxyphenyl)imidazo[1,2-a]pyrazin-8-yl)amino)-2-methylbenzoyl)piperazin-1-yl)-2-(methylamino) ethanone hydrochloride], 180 nM. Same read-out and setting: the result for `Cc1cc(Nc2nccn3c(-c4ccc(OC(F)F)cc4)cnc23)ccc1C(=O)N1CCN(C(=O)CCNC(=N)N)CC1` [Example 225, 1-(3-(4-(4-((3-(4-(difluoromethoxy)phenyl)imidazo[1,2-a]pyrazin-8-yl)amino)-2-methylbenzoyl)piperazin-1-yl)-3-oxopropyl)guanidine] reads 260 nM; that for `Cc1cc(Nc2nccn3c(-c4ccc(OC(F)F)cc4)cnc23)ccc1C(=O)N1CCN(C(=O)[C@H](C)N)CC1` [Example 226, (2S)-2-amino-1-[4-[4-[[3-4-(difluoromethoxy)phenyl]imidazo[1,2-a]pyrazin-8-yl]amino]-2-methyl-benzoyl]piperazin-1-yl]propan-1-one hydrochloride], 520 nM.

As for `Cc1cc(Nc2nccn3c(-c4ccc(OCC#N)c(F)c4F)cnc23)ccc1C(=O)N1CCN(C(=O)[C@@H]2C[C@](C)(O)CN2)CC1` [Example 230, 2-[2,3-difluoro-4-[8-[4-[4-[(2S,4S)-4-hydroxy-4-methyl-pyrrolidine-2-carbonyl]piperazine-1-carbonyl]-3-methyl-anilino]imidazo[1,2-a]pyrazin-3-yl]phenoxy] acetonitrile formate], under setting [1], the IC90 was determined as 63 nM.

As for `CC[C@]1(O)CN[C@H](C(=O)N2CCN(C(=O)c3ccc(Nc4nccn5c(-c6ccc(OCC#N)c(F)c6F)cnc45)cc3C)CC2)C1` [Example 232, 2-[4-[8-[4-[4-[(2S,4R)-4-ethyl-4-hydroxy-pyrrolidine-2-carbonyl]piperazine-1-carbonyl]-3-methyl-anilino]imidazo[1,2-a]pyrazin-3-yl]-2,3-difluoro-phenoxy]acetonitrile formate], the IC90 under setting [1] amounted to 83 nM. Consider `Cc1cc(Nc2nccn3c(-c4ccc(OC(C)C#N)c(F)c4F)cnc23)ccc1C(=O)N1CCN(CCCN(C)C)CC1` (stereo not drawn) [Example 237, 2-[4-[8-[4-[4-[3-(dimethylamino)pro-pyl]piperazine-1-carbonyl]-3-methyl-anilino]imidazo[1,2-a]pyrazin-3-yl]-2,3-difluoro-phenoxy]propanenitrile formate], for which the IC90 under setting [1] came out at 370 nM.

On to `Cc1cc(Nc2nccn3c(-c4ccc(OC(C)C#N)c(F)c4F)cnc23)ccc1C(=O)N1CCN(CCN(C)C)CC1` (stereo not drawn) [Example 238, 2-[4-[8-[4-[4-[2-(dimethylamino)ethyl]piperazine-1-carbonyl]-3-methyl-anilino]imidazo[1,2-a]pyrazin-3-yl]-2,3-difluoro-phenoxy]propanenitrile; 2,2,2-trifluoroacetic acid], for which, under setting [1], the IC90 is 210 nM.

As to `Cc1cc(Nc2nccn3c(-c4ccc(O[C@H](C)C#N)c(F)c4F)cnc23)ccc1C(=O)N1CCN(CCN(C)C)CC1` [Example 239, (2R)-2-[4-[8-[4-[4-[2-(dimethylamino)ethyl]piperazine-1-carbonyl]-3-methyl-anilino]imidazo[1,2-a]pyrazin-3-yl]-2,3-difluoro-phenoxy]propanenitrile formate], the IC90 (Acinetobacter baumannii, ATCC17978, 16 h, read-out: ATCC17978 IC90, 90% growth inhibitory concentration, Acinetobacter baumannii ATCC17978, Iso-Sensitest broth, OD 600 nm over 16 h) worked out at 790 nM. For `Cc1cc(Nc2nccn3c(-c4ccc(O[C@@H](C)C#N)c(F)c4F)cnc23)ccc1C(=O)N1CCN(CCN(C)C)CC1` [Example 240, ((2S)-2-[4-[8-[4-[4-[2-(dimethylamino)ethyl]piperazine-1-carbonyl]-3-methyl-anilino]imidazo[1,2-a]pyrazin-3-yl]-2,3-difluoro-phenoxy]propanenitrile formate], the IC90 under setting [1] came to 110 nM. `CCc1cc(Nc2nccn3c(-c4ccc(OC)c(F)c4)cnc23)ccc1C(=O)N1CCC(C(=O)O)CC1` [Example 241, 1-(2-Ethyl-4-((3-(3-fluoro-4-methoxyphenyl)imidazo[1,2-a]pyrazin-8-yl)amino)benzoyl)piperidine-4-carboxylic acid]: the IC90 under setting [1] is 2200 nM. For `CNCCCNC(=O)C1CCN(C(=O)c2ccc(Nc3nccn4c(-c5ccc(OCC#N)c(F)c5F)cnc34)cc2C)CC1` [Example 242, 1-(4-((3-(4-(cyanomethoxy)-2,3-difluorophenyl)imidazo[1,2-a]pyrazin-8-yl)amino)-2-methylbenzoyl)-N-(3-(methylamino)propyl)piperidine-4-carboxamide], the IC90 under setting [1] amounted to 170 nM.
